From US20190269702A1, “COMPOSITIONS AND METHODS FOR TREATING NONINFECTIOUS UVEITIS” (CLEARSIDE BIOMEDICAL, INC., priority 2018, published 2019)

Test system: treatment-naïve DME eyes
Assay type: in vivo, human
Protocol: A study was conducted to evaluate suprachoroidal CLS-TA in combination with intravitreal aflibercept, compared to aflibercept monotherapy for DME. SCS injections target chorioretinal tissues more directly than intravitreal injections while limiting exposure to the anterior chamber, thereby offering potential safety, efficacy, and durability advantages. The study was a Phase 2, multicenter, randomized, double-masked, controlled, 24-week study in treatment-naïve DME eyes (eligibility: CST >300 μm; 20-70 ETDRS letters) randomized 1:1 to CLS-TA+aflibercept or aflibercept monotherapy. Patients in the combination arm (n=36) received CLS-TA and aflibercept at baseline & week 12 ([…]). Patients in the monotherapy arm (n=35) received aflibercept at baseline, W4, W8 and […]. […] The study is referred to as the TYBEE study in some embodiments herein.

aflibercept
eyes with macular edema resolved (<300 μm) (W4): 21% | mean CST change (W24): −176 μm | gain in BCVA letters from baseline (W24, per protocol arms): +13.5 letters | mean PRN aflibercept treatments (at W16 & W20): 0.7 | cataract observed (in vivo): 2.9% | elevated IOP observed (in vivo): 2.9% | treatment-related serious AEs (in vivo): No treatment-related serious AEs were observed | average number of treatments (through week 24): 4.7
